These results are taken from ChEMBL document CHEMBL1135928, “Binding mode analysis of 3-(4-benzoyl-1-methyl-1H-2-pyrrolyl)-N-hydroxy-2-propenamide: a new synthetic histone deacetylase inhibitor inducing histone hyperacetylation, growth inhibition, and terminal cell differentiation” (J Med Chem, 2002).

The IC50 is the concentration at which inhibition is half-maximal. Low readings indicate greater potency, high ones weaker potency. What is called Ki is a measure of affinity in units of concentration, obtained from inhibition or displacement.

Experiment [1] addresses T1, Histone deacetylase 1 (Mus musculus, UniProt O09106). The experiment is described as follows: In vitro for anti-HDAC1 (Histone deacetylase 1) activity in mouse A20 cells. It is filed as cell-based.
The target in experiment [2] is T1, Histone deacetylase 1. The experiment is described as follows: Binding affinity towards HDAC1 (Histone deacetylase 1) in mouse A20 cells, expressed as binding constant (pKi). It is filed as cell-based.

Molecules are shown by their SMILES.

T1 sequence (O09106 whole entry): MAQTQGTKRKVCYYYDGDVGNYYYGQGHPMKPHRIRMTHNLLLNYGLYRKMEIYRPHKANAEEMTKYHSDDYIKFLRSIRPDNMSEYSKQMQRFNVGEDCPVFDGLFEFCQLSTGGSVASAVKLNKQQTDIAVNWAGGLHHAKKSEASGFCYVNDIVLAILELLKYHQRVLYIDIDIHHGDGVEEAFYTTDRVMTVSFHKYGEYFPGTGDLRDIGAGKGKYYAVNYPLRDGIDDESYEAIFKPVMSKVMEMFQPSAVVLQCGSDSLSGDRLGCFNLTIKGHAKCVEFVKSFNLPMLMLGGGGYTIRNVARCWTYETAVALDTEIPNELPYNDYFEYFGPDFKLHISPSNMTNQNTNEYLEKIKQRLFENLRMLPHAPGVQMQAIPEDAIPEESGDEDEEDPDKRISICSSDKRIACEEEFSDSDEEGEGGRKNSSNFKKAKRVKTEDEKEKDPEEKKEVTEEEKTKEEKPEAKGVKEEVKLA

For the compound `Cc1ccc(C(=O)c2cc(/C=C/C(=O)NO)n(C)c2)cc1`, the IC50 in experiment [1] turned out to be 4.5 µM. Moreover, the affinity in experiment [2], expressed as Ki, was 2.69 µM.

In experiment [1], `Cn1cc(C(=O)c2ccccc2)cc1/C=C/C(=O)NO` had an IC50 of 4.9 µM. The Ki in experiment [2] is 2.95 µM.

Regarding `CN(C)c1ccc(C(=O)c2cc(/C=C/C(=O)NO)n(C)c2)cc1`, the half-inhibitory concentration (IC50) in experiment [1] is 4.2 µM. The affinity in experiment [2] corresponds to a Ki of 2.51 µM.
